Key:
Conditions in all cases: treatment: drug alone; 5 days
UO-31 [1] = experiment: AUC of dose-response viability curve, drug alone (arbitrary (AUC of normalised viability)); higher = less growth inhibition
Experimental: (§1)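 Primary HTS: 8 RCC cell lines treated with 8 doses (up to 10 uM) of each library drug alone for 5 days; viability read by CellTiter-Glo and normalised to DMSO. GI50 was fitted with XLfit (4-parameter), AUC is the area under the dose-response curve, and minimum viability is the lowest fraction of DMSO viability across doses.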

CAKI-1 [2] = experiment: as above
Experimental: as §1

ACHN [3] = experiment: as above
Experimental: as §1

769-P [4] = experiment: as above
Experimental: as §1

786-O [5] = experiment: as above
Experimental: as §1

SN12C [6] = experiment: as above
Experimental: as §1

A498 [7] = experiment: as above
Experimental: as §1

TK-10 [8] = experiment: as above
Experimental: as §1

UO-31 [9] = experiment: minimum viability across doses, drug alone, relative to DMSO (fraction); higher = less growth inhibition
Experimental: as §1

CAKI-1 [10] = experiment: as above
Experimental: as §1

ACHN [11] = experiment: as above
Experimental: as §1

769-P [12] = experiment: as above
Experimental: as §1

786-O [13] = experiment: as above
Experimental: as §1

SN12C [14] = experiment: as above
Experimental: as §1

A498 [15] = experiment: as above
Experimental: as §1

TK-10 [16] = experiment: as above
Experimental: as §1

UO-31 [17] = experiment: GI50, drug alone; higher = less potent
Experimental: as §1

CAKI-1 [18] = experiment: GI50, drug alone; higher = less potent
Experimental: as §1

ACHN [19] = experiment: GI50, drug alone; higher = less potent
Experimental: as §1

769-P [20] = experiment: GI50, drug alone; higher = less potent
Experimental: as §1

786-O [21] = experiment: GI50, drug alone; higher = less potent
Experimental: as §1

SN12C [22] = experiment: GI50, drug alone; higher = less potent
Experimental: as §1

A498 [23] = experiment: GI50, drug alone; higher = less potent
Experimental: as §1

TK-10 [24] = experiment: GI50, drug alone; higher = less potent
Experimental: as §1

Structure (SMILES) | AUC of dose-response viability curve (UO-31 [1]) | AUC of dose-response viability curve (CAKI-1 [2]) | AUC of dose-response viability curve (ACHN [3]) | AUC of dose-response viability curve (769-P [4]) | AUC of dose-response viability curve (786-O [5]) | AUC of dose-response viability curve (SN12C [6]) | AUC of dose-response viability curve (A498 [7]) | AUC of dose-response viability curve (TK-10 [8]) | minimum viability across doses (UO-31 [9]) | minimum viability across doses (CAKI-1 [10]) | minimum viability across doses (ACHN [11]) | minimum viability across doses (769-P [12]) | minimum viability across doses (786-O [13]) | minimum viability across doses (SN12C [14]) | minimum viability across doses (A498 [15]) | minimum viability across doses (TK-10 [16]) | GI50, drug alone (UO-31 [17]) | GI50, drug alone (CAKI-1 [18]) | GI50, drug alone (ACHN [19]) | GI50, drug alone (769-P [20]) | GI50, drug alone (786-O [21]) | GI50, drug alone (SN12C [22]) | GI50, drug alone (A498 [23]) | GI50, drug alone (TK-10 [24])
CS(=O)(=O)O.Cc1ccc(NC(=O)c2ccc(CN3CCN(C)CC3)cc2)cc1Nc1nccc(-c2cccnc2)n1 [Imatinib Mesylate] | 5.21 | 3.61 | 3.71 | 3.45 | 2.83 | 3.55 | 3.89 | 3.25 | 1.1 | 0.965 | 0.855 | 0.898 | 0.399 | 0.775 | 0.973 | 0.861 | > 10 µM | > 10 µM | > 10 µM | > 10 µM | 8.42 µM | > 10 µM | > 10 µM | > 10 µM
O=C1Nc2ccccc2/C1=C1/Nc2ccccc2C1=O [Indirubin] | 2.68 | 2.94 | 2.9 | 3.19 | 2.32 | 2.66 | 3.26 | 2.6 | 0.655 | 0.762 | 0.778 | 0.811 | 0.529 | 0.703 | 0.827 | 0.635 | > 10 µM | > 10 µM | > 10 µM | > 10 µM | > 10 µM | > 10 µM | > 10 µM | > 10 µM
CCCNC(=O)Nc1ccc(Oc2ncnc3cc(OC)c(OC)cc23)cc1Cl [KRN 633] | 3.91 | 3.24 | 2.92 | 3.34 | 2.11 | 2.93 | 4.07 | 2.8 | 0.734 | 0.817 | 0.742 | 0.861 | 0.366 | 0.718 | 0.974 | 0.664 | > 10 µM | > 10 µM | > 10 µM | > 10 µM | 3.93 µM | > 10 µM | > 10 µM | > 10 µM
O=C(c1ccc(/C=C/c2n[nH]c3ccccc23)cc1)N1CCNCC1 [KW 2449] | 4.33 | 2.93 | 2.67 | 3.12 | 3.77 | 3.03 | 3.72 | 3.23 | 0.86 | 0.268 | 0.215 | 0.549 | 0.814 | 0.241 | 0.828 | 0.645 | > 10 µM | 3.54 µM | 2.12 µM | > 10 µM | > 10 µM | 4.76 µM | > 10 µM | > 10 µM
O=C(Cc1ccc(-c2ccc(OCCN3CCOCC3)cc2)cn1)NCc1ccccc1 [KX2-391] | 1.48 | 1.67 | 1.66 | 1.43 | 0.9 | 1.72 | 1.84 | 1.95 | 0.00967 | 0.142 | 0.113 | 0.0797 | 0.00471 | 0.102 | 0.177 | 0.27 | 0.0852 µM | 0.0797 µM | 0.0755 µM | 0.0606 µM | 0.0268 µM | 0.115 µM | 0.0893 µM | 0.193 µM
COc1cc2nccc(Oc3ccc(NC(=O)Nc4ccc(F)cc4F)c(F)c3)c2cc1OC [Ki8751] | 2.83 | 3.34 | 3.13 | 3.31 | 3.06 | 3.45 | 5.49 | 3.08 | 0.00557 | 0.403 | 0.574 | 0.559 | 0.673 | 0.877 | 1 | 0.72 | 0.445 µM | 7.43 µM | > 10 µM | > 10 µM | > 10 µM | > 10 µM | > 10 µM | > 10 µM
CS(=O)(=O)CCNCc1ccc(-c2ccc3ncnc(Nc4ccc(OCc5cccc(F)c5)c(Cl)c4)c3c2)o1.Cc1ccc(S(=O)(=O)O)cc1.Cc1ccc(S(=O)(=O)O)cc1 [Lapatinib Ditosylate (Tykerb)] | 4.64 | 3.24 | 2.78 | 2.86 | 2.9 | 3.16 | 3.99 | 2.51 | 1.05 | 0.48 | 0.419 | 0.455 | 0.471 | 0.734 | 0.929 | 0.39 | > 10 µM | 9.61 µM | 5.29 µM | 7.1 µM | > 10 µM | > 10 µM | > 10 µM | 3.78 µM
Nc1cccc2c1CN(C1CCC(=O)NC1=O)C2=O (configuration not stated) [Lenalidomide (Revlimid)] | 5.03 | 3.56 | 3.29 | 3.64 | 1.86 | 3.28 | 4.04 | 3.21 | 1.19 | 0.972 | 0.878 | 0.963 | 0.325 | 0.865 | 0.98 | 0.864 | > 10 µM | > 10 µM | > 10 µM | > 10 µM | < 0.003 µM | > 10 µM | > 10 µM | > 10 µM
